Assay results: patent US12649942B2, “Carotenoids for treating or preventing nausea” (priority 2019, dated 2026)

Key:
pgp-5p::gfp [1] = test: pgp-5p::gfp induction in eft-3(q145);pgp-5p::gfp animals (translation deficit); format: in vivo, C. elegans; conditions: vs mock-treated
pgp-5p::gfp [2] = test: pgp-5p::gfp induction in response to hygromycin, emetine or cisplatin; format: in vivo, C. elegans; conditions: animals fed E. coli OP50; hygromycin 10 μg/ml, emetine 6.25 μg/ml, cisplatin 1 mM
Procedure: Hygromycin diluted in M9 solution to the desired concentration was added onto E. coli OP50 bacteria containing NGM plates. […] For the xenobiotic experiments, synchronized L1-stage animals were dropped onto the drug containing plates and scored 4 days later.

C. elegans = test: food aversion behavior; format: in vivo; conditions: for food aversion induced by the drug: in vivo
Procedure: In some embodiments, a food aversion assay as described herein is used. In some embodiments, a test sample is, or is derived from (e.g., a sample taken from) an in vivo model of a disorder as described herein. For example, a test compound is applied to a test sample comprising one or more C. elegans organisms, and one or more effects of the test compound is evaluated. For example, the ability of a test compound to counteract food aversion in the presence of a chemotherapeutic agent or other nausea-inducing stimulus can be tested. Alternatively, effects on a reporter gene, e.g., ABC transporter gene fusion pgp-5p::gfp, can be evaluated by detecting alterations in GFP fluorescence. As one of skill in the art will appreciate, other reporters could readily be used.
C. elegans food aversion behaviors are induced when animals are exposed to xenobiotics or essential gene inactivations (Melo and Ruvkun, 2012). […] While ˜40% of animals exposed to 25 μg/ml hygromycin display food aversion behavior, ˜15% of animals exposed to 25 μg/ml hygromycin and K. rhizophila carotenoid extract show aversion (FIG. 3E). Similar results were obtained with cisplatin: ˜50% of animals exposed to 1 mM cisplatin display aversion behavior while <20% of animals exposed to 1 mM cisplatin and K. rhizophila carotenoid extract display food aversion (FIG. 3F).

[3] = animals on E. coli OP50 treated with the substance, screened after 50 hours at 20° C.
[4] = animals fed on E. coli expressing the carotenoid

| SMILES | induction of pgp-5p::gfp (pgp-5p::gfp [1]; [3]) | induction of pgp-5p::gfp (pgp-5p::gfp [1]; [4]) | other results |
| --- | --- | --- | --- |
| CC(=O)N[C@@H](CS)C(=O)O [N-acetyl cysteine] | not significantly different |  |  |
| CC1=CCCC(C)(C)C1/C=C/C(C)=C/C=C/C(C)=C/C=C/C=C(C)/C=C/C=C(C)/C=C/C1=C(C)CCCC1(C)C (stereo not drawn) [alpha-carotene] |  | not significantly different |  |
| CC1=C(/C=C/C(C)=C/C=C/C(C)=C/C=C/C=C(C)/C=C/C=C(C)/C=C/C2=C(C)C(=O)[C@@H](O)CC2(C)C)C(C)(C)C[C@H](O)C1=O [astaxanthin] | not significantly different |  |  |
| CC1=C(/C=C/C(C)=C/C=C/C(C)=C/C=C/C=C(C)/C=C/C=C(C)/C=C/C2=C(C)CCCC2(C)C)C(C)(C)CCC1 [beta-carotene] | not significantly different |  |  |
| N.N.[Cl][Pt][Cl] [cisplatin] |  |  | pgp-5p::gfp expression induced by the drug (pgp-5p::gfp [2]): induces pgp-5p::gfp expression; animals that display aversion behavior (C. elegans; 1 mM cisplatin, no extract): ~50%; food aversion induced by the drug (C. elegans): strong food aversion |
| CC(C)=CCC/C(C)=C/C=C/C(C)=C/C=C/C(C)=C/C=C/C=C(C)/C=C/C=C(C)/C=C/C1C(C)=CCCC1(C)C (stereo not shown) [delta-carotene] |  | not significantly different |  |
| CC[C@H]1CN2CCc3cc(OC)c(OC)cc3[C@@H]2C[C@@H]1C[C@H]1NCCc2cc(OC)c(OC)cc21 [emetine] |  |  | food aversion induced by the drug (C. elegans): strong food aversion |
| CC(C)=CCC/C(C)=C/C=C/C(C)=C/C=C/C(C)=C/C=C/C=C(C)/C=C/C=C(\C)CC/C=C(\C)CCC=C(C)C [neurosporene] |  | not significantly different |  |
| Cc1c(C)c2c(c(C)c1O)CCC(C)(C(=O)O)O2 (stereo not shown) [trolox] | not significantly different |  |  |
| CC(/C=C/C=C(C)/C=C/[C@@]12O[C@]1(C)C[C@@H](O)CC2(C)C)=C\C=C\C=C(C)\C=C\C=C(C)\C=C\[C@@]12O[C@]1(C)C[C@@H](O)CC2(C)C [violaxanthin] |  | not significantly different |  |
| CC1=C(/C=C/C(C)=C/C=C/C(C)=C/C=C/C=C(C)/C=C/C=C(C)/C=C/C2=C(C)C[C@@H](O)CC2(C)C)C(C)(C)C[C@H](O)C1 [zeaxanthin] |  | not significantly different |  |
